Data reported in patent publication US8012949B2, “Bisphosphonate compounds and methods with enhanced potency for multiple targets including FPPS, GGPPS, and DPPS” (The Board of Trustees of the University of Illinois, priority 2004, dated 2011).
Like-named read-outs stand apart in the source and are kept apart here.

Key:
[1] = molecular target: T1, human recombinant geranylgeranyl diphosphate synthase (hGGPPS) (Homo sapiens, UniProt O95749); assay: Human recombinant GGPPS inhibition (radiometric assay); assay type: biochemical
T1 construct: made in house
T1 sequence (O95749 1-300): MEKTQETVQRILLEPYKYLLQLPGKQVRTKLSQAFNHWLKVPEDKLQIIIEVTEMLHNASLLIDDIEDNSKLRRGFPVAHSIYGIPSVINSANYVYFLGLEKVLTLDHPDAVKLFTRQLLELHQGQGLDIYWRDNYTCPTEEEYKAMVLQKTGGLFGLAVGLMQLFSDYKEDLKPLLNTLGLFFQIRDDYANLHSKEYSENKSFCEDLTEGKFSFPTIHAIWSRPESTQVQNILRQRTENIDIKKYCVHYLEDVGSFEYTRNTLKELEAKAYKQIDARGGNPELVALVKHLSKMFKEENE
Description: To test our polypharmaceutical hypothesis, we expressed three enzymes: human FPPS, GGPPS and DPPS, and tested each for their inhibition by a series of bisphosphonates.
Human recombinant GGPPS inhibition. The purification of human recombinant geranylgeranyl diphosphate synthase (hGGPPS) followed the protocol reported previously^2. GGPPS inhibition by bisphosphonates was determined using the radiometric assay reported previously^2 with slight modification. […] IPP and incubated at 37° C. for 20 min. The reaction was terminated by the addition of 75 μL of HCl/MeOH. Following a second 20 min incubation at 37° C. to effectively hydrolyze the allylic pyrophosphates, the reaction mixtures were neutralized by the addition of 75 μL of 6 N NaOH and extracted with 500 μL of hexane. 200 μL of the organic phase was transferred to a scintillation vial for counting. The IC50 values were obtained by fitting the data to the dose-response curve in Origin 6.1 (OriginLab Corp., Northampton, Mass., www.OriginLab.com).

[2] = system: SF-268 (central nervous system glioblastoma); assay: SF-268 cell growth inhibition (MTT); assay type: cell-based, human; conditions: Homo sapiens, SF-268

- effect on GGPPS [1]: good GGPPS inhibitor
- Ki ([1]; Table 1, experimental, read-out: GGPPS pKi (converted)): 15.8 nM
- IC50 ([2]; Table 1, experimental, read-out: SF-268 pIC50 (converted)): 25.1 µM
- IC50 ([2]; read-out: IC50, inhibition of human CNS cancer SF268): 0.524 µM
Structure (SMILES): CCCCCCCCCCOc1cccc(CC(O)(P(=O)(O)O)P(=O)(O)O)c1 [BPH-754]
